The subject of data set [1] is site of infusion. Briefly: Histopathology score of site reactions in the subcutis at the cannula tip. Particulars: apomorphine, microscopic.
In data set [2] the test system is site of infusion. Briefly: Toxicology, subcutaneous infusion site reaction. The format is in vivo, rabbits and minipigs. The method, then: Toxicology was tested on rats, rabbits and minipigs. A sterilized injectable ropinirole composition at 15 mg/mL/day was administered to the rabbits and minipigs. Injection sites were administered 1 mL of infusate per day for 3 days and tissues collected immediately after cessation of delivery. […] A slight trend towards larger reactions with higher concentrations/doses of ropinirole relative to vehicle-treated sites was found but was concluded to be much less severe than apomorphine-induced inflammation at clinically relevant doses (FIGS. 12 and 13).

The nature of data set [3]: Pharmacokinetics of injectable ropinirole administered subcutaneously, steady state plasma levels. The format is in vivo. The note with it: rats, subcutaneous, sterilized ropinirole HCl in sterile water for injection, no excipients.
From the text: The rats were given sterilized ropinirole HCl in sterile water for injection, no excipients.
For data set [4], the system named is site of infusion. Particulars: in vivo.
The nature of data set [5]: Pharmacokinetics of injectable ropinirole administered subcutaneously, steady state plasma levels. The format is in vivo. Particulars: minipigs, subcutaneous, ropinirole 15 mg/ml terminally sterilized (Table A).

The structures appear in SMILES notation. Structures can show the parent of a compound that is named as a salt.

With `CN1CCc2cccc3c2[C@H]1Cc1ccc(O)c(O)c1-3` [apomorphine], in the data set on site of infusion [1], the inflammation score result is on record as “severe” and the necrosis score entry was “moderate”. Besides, the “size of site reaction relative to 15 mg/mL/day ropinirole” value in the data set on site of infusion [2] (minipig, 10 mg/3 mL/day, 3 days infusion) is reported as “approximately twice as large”.
With `CCCN(CCC)CCc1cccc2c1CC(=O)N2` [ropinirole, 4-[2-(dipropylamino)ethyl]-1,3-dihydro-2H-indol2-one monohydrochloride], the “steady state plasma levels versus dose” value in data set [3] and in data set [5] was “approximate linear relationship to the dose administered” each time. Moreover, the “two and three repeat administrations to the same site versus single 3-day administration” value in the data set on site of infusion [4] is given as “did not differ significantly”. Moreover, the “inflammation/necrosis at the site of infusion” value in the data set with site of infusion [2] (15 mg/mL/day, 1 mL per day for 3 days) is given as “mild inflammation/necrosis”. Moreover, the “gross detectability of reactions at the local sites of infusion” value with site of infusion [2] (seen only at cannula tip in the subcutis upon microscopic evaluation) was “not detectable grossly at the surface of the skin”.
